ChEMBL document CHEMBL4020815 (J Med Chem, 2017)
pIC50: −log10 of the molar value.

Tests used:
[1] = Plasma concentration in CD-1 mouse at 10 mg/kg, po after 1 hr by LC-MS/MS method; type: ADME, organism-based
NCI-H460 = test: Cytotoxicity against human NCI-H460 cells assessed as growth inhibition using low folate media after 7 days by Alamar blue assay; type: functional; settings: NCI-H460, 168 h
Mus musculus [2] = test: Unbound AUC in CD-1 mouse at 10 mg/kg, po by LC-MS/MS method; type: ADME, organism-based; settings: in vivo
Mus musculus [3] = test: In vivo inhibition of AICARFT in tumor of low folate diet fed nude mouse xenografted with human NCI-H460 cells assessed as increase in circulating AICAr levels at 0.3 to 30 mg/kg after 4 hrs relative to vehicle-treated control; type: functional
[4] = target: T1, Bifunctional methylenetetrahydrofolate dehydrogenase/cyclohydrolase 2, mitochondrial (Homo sapiens, UniProt Q9H903); test: Inhibition of MTHFD2L (unknown origin) using NAD/5,10-methylene THF as substrate after 2 hrs by HPLC method
T1 sequence (Q9H903 whole entry): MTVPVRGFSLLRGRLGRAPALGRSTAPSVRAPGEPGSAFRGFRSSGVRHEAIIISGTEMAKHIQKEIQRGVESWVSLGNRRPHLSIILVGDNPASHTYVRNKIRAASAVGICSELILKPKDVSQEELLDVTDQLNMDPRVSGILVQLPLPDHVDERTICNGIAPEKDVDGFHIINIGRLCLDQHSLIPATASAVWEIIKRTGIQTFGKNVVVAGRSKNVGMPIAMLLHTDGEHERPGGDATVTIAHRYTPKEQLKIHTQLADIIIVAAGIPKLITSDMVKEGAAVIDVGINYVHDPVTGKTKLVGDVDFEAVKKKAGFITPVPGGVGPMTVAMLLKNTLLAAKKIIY

[5] = Drug metabolism in microsomes (unknown origin); type: ADME, Microsome; settings: read-out: Drug metabolism
CYP2D6 = CYP2D6 (Homo sapiens, UniProt P10635); test: Inhibition of human CYP2D6 at 10 uM relative to control; type: ADME
Sequence of CYP2D6 (P10635 whole entry): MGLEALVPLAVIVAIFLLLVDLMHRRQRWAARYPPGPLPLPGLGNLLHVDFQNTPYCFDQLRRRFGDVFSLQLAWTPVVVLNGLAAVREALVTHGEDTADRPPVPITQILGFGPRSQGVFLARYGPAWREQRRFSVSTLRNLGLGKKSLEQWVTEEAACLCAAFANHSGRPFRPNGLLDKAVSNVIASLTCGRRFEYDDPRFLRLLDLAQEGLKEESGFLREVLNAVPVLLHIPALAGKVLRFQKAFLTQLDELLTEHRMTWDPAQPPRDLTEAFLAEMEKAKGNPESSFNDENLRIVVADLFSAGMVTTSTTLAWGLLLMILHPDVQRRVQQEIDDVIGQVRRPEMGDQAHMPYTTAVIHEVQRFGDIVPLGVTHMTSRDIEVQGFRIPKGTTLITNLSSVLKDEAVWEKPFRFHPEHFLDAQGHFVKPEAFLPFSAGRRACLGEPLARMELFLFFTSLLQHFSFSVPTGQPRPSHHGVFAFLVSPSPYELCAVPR

CYP2C9 = CYP2C9 (Homo sapiens, UniProt P11712); test: Inhibition of human CYP2C9 at 10 uM relative to control; type: ADME
Sequence of CYP2C9 (P11712 whole entry): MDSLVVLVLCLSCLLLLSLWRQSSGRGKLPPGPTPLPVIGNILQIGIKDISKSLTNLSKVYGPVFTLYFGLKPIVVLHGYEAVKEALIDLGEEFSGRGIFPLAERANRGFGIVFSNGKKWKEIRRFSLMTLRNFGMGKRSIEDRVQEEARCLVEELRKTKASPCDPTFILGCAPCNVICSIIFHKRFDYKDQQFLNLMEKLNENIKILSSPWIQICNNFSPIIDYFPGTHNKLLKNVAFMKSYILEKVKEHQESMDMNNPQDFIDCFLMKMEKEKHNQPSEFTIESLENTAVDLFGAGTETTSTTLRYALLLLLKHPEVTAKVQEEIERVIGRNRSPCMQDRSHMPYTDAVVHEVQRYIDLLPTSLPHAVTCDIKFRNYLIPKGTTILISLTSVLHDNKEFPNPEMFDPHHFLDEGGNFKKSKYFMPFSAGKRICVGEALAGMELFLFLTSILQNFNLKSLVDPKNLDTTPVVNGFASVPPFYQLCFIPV

[6] = Antiproliferative activity against human MDA-MB-231met2 cells by Alamar blue assay; type: functional, cell-based
[7] = Antitumor activity against human MDA-MB-231met2 cells xenografted in athymic nude mouse assessed as tumor volume at 60 mg/kg, bid administered via oral gavage for 22 days relative to control; type: functional
Mus musculus [8] = test: Toxicity in athymic nude mouse xenografted with human MDA-MB-231met2 cells assessed as mortality at 30 to 60 mg/kg, bid administered via oral gavage for 22 days; type: organism-based; settings: in vivo, 528 h
Mus musculus [9] = test: Toxicity in athymic nude mouse xenografted with human MDA-MB-231met2 cells assessed as body weight loss at 30 to 60 mg/kg, bid administered via oral gavage for 22 days; type: organism-based; settings: in vivo, 528 h
Mus musculus [10] = test: In vivo inhibition of AICARFT in tumor of athymic nude mouse xenografted with human MDA-MB-231met2 cells assessed as increase in AICAr levels at 60 mg/kg, bid administered via oral gavage for 22 days relative to control; type: functional
MDA-MB-231met2 = test: Antitumor activity against human MDA-MB-231met2 cells xenografted in athymic nude mouse assessed as tumor growth inhibition administered as bid via oral gavage for 22 days; type: functional, cell-based

Compound: O=c1[nH]ccc2cc(F)c(NS(=O)(=O)c3ccc(N4CC[C@@H](O)C4)s3)cc12
- concentration at 1 h [1]: 8.5 µM
- GI50 (NCI-H460): 25 nM
- fAUC (Mus musculus [2]): 1.279 µM·h
- fold change (FC) (Mus musculus [3]): 80
- pIC50 [4]: < 4.00
- metabolised [5]: < 10%
- inhibition at 10 µM (CYP2D6): < 10%
- inhibition at 10 µM (CYP2C9): < 10%
- pIC50 [6]: 7.07
- Activity [7]: -1%
- Activity (Mus musculus [8]): Non-Toxic
- Activity (Mus musculus [9]): Non-Toxic
- fold change (FC) (Mus musculus [10]): 3
- TGI (MDA-MB-231met2): Dose-dependent effect
